In patent EP4775574A1, “FURAN RING-CONTAINING COMPOUND, PHARMACEUTICAL COMPOSITION THEREOF, AND USE THEREOF” (Wuhan Xirui Pharmaceutical Technology Co., Ltd, priority 2023, dated 2025) one finds inhibition and IC50 data, which are given here for 3 compounds.

For orientation: inhibition means the share of the control response that was lost under treatment. A word on the IC50: it is the point on the concentration scale where inhibition reaches its midpoint.

One data set concerns the target Nav1.5 (Homo sapiens, UniProt Q14524). Put plainly: Sodium channel selectivity test, patch-clamp, Nav1.5. To be noted: read-out: Nav1.5 Inhibition rate (%). The class given is cell-based. The source says:
Test Example 3: Selectivity test of the compounds of the present disclosure on sodium channels • 1. Experimental objective: The effects of the compounds on the current of the voltage-gated sodium channel (NaV) subtypes 1.1-1.7 were detected by patch-clamp technique • 2. Experimental materials and instruments • 2.1 Cell lines: CHO/HEK293 cell lines stably expressing Nav1.1-1.7 sodium channels, constructed in-house by the laboratory of Beijing ICE Bioscience Co., Ltd., (Reference: Jarvis MF, Honore P, Shieh CC, Chapman M, Joshi S, Zhang XF, Kort M, Carroll W, Marron B, Atkinson R, Thomas J, Liu D, Krambis M, Liu Y, McGaraughty S, Chu K, Roeloffs R, Zhong C, Mikusa JP, Hernandez G, Gauvin D, Wade C, Zhu C, Pai M, Scanio M, Shi L, Drizin I, Gregg R, Matulenko M, Hakeem A, Gross M, Johnson M, Marsh K, Wagoner PK, Sullivan JP, Faltynek CR, Krafte DS. A-803467, a potent and selective Nav1.8 sodium channel blocker, attenuates neuropathic and inflammatory pain in the rat. Proc Natl Acad Sci U S A. 2007 May 15;104(20):8520-5. doi: 10.1073/pnas.0611364104. Epub 2007 May 2. PMID: 17483457; PMCID: PMC1895982.), gene information Nav1.1: NM_006920; Nav1.2: NM_001040142; Nav1.3: NM_006922; Nav1.4: NM_000334; Nav1.5: NM198056; Nav1.6: NM014191; Nav1.7: […]. • 2.2 Compounds: Dissolved in DMSO, with sample concentration prepared at 30 µM. • 3. Experimental methods • 3.1 Cell culture • (1) Maintenance medium: CHO cells were cultured in HAM'S/F-12 medium containing 10% fetal bovine serum, 100 µg/mL Zeocin, and 10 µg/mL Blasticidin, under conditions of 37°C incubation temperature and 5% carbon dioxide concentration. HEK-293 cells were cultured in DMEM medium containing 10% fetal bovine serum and 800 µg/mL G418; the culture temperature was 37°C, and the carbon dioxide concentration was 5%. • (2) Cell passage: The old medium was removed, and the cells were washed once with PBS, then 1 mL of 0.25%-Trypsin-EDTA solution was added and incubated at 37°C for approximately 1.5 min. When the cells were detached from the bottom of the dish, about 5 mL of preheated complete medium at 37°C was added. […]
Background: The patch-clamp technique gives a direct electrical read-out from membranes.

A further data set has as its target T1, hNav1.8 (Homo sapiens, UniProt Q9Y5Y9).
T1 construct: host or cells: HEK293
In words: Manual patch-clamp IC50 on hNav1.8 channel current (HEK293 hNav1.8/β3). Type of data set: cell-based. To be noted: HEK293 stably expressing hNav1.8/β3, n = 2, read-out: Inhibitory activity (IC50). As to the method:
This experiment was performed by detecting the influence of 5 concentrations of the compound or a single point or two concentration points on the hNav1.8 channel current, the dose-response curve of the compound was obtained, and the IC50 was calculated. This experiment was conducted to include two parallel sample determinations.
• 1) Cells: The HEK293 cell line that stably expressed the hNav1.8/β3 ion channel was prepared in-house by the Biology Department of Pharmaron (Beijing) Co., Ltd. (The lentiviral vectors that respectively expressed human Nav1.8 and β3 were transduced into HEK293, and it was prepared after screening. Specific reference: Proc Natl Acad Sci U S A. 2022 Jul 26;119(30):e2208211119. doi: 10.1073/pnas.2208211119. and the Cell Lines / BSYS CHO NaV1.8/β3 Cell Line manual.). The cell line was cultured in a medium containing 90% DMEM, 10% fetal bovine serum, 100 U/mL penicillin-streptomycin solution, 0.75 µg/mL puromycin, and 100 µg/mL hygromycin. When the cell density had grown to 40% to 80% of the bottom area of the culture dish, digestion was performed with trypsin, and passage was carried out three times per week. […]

Like-named read-outs stand apart in the source and are kept apart here.

Sequence of Nav1.5 (Q14524 whole entry): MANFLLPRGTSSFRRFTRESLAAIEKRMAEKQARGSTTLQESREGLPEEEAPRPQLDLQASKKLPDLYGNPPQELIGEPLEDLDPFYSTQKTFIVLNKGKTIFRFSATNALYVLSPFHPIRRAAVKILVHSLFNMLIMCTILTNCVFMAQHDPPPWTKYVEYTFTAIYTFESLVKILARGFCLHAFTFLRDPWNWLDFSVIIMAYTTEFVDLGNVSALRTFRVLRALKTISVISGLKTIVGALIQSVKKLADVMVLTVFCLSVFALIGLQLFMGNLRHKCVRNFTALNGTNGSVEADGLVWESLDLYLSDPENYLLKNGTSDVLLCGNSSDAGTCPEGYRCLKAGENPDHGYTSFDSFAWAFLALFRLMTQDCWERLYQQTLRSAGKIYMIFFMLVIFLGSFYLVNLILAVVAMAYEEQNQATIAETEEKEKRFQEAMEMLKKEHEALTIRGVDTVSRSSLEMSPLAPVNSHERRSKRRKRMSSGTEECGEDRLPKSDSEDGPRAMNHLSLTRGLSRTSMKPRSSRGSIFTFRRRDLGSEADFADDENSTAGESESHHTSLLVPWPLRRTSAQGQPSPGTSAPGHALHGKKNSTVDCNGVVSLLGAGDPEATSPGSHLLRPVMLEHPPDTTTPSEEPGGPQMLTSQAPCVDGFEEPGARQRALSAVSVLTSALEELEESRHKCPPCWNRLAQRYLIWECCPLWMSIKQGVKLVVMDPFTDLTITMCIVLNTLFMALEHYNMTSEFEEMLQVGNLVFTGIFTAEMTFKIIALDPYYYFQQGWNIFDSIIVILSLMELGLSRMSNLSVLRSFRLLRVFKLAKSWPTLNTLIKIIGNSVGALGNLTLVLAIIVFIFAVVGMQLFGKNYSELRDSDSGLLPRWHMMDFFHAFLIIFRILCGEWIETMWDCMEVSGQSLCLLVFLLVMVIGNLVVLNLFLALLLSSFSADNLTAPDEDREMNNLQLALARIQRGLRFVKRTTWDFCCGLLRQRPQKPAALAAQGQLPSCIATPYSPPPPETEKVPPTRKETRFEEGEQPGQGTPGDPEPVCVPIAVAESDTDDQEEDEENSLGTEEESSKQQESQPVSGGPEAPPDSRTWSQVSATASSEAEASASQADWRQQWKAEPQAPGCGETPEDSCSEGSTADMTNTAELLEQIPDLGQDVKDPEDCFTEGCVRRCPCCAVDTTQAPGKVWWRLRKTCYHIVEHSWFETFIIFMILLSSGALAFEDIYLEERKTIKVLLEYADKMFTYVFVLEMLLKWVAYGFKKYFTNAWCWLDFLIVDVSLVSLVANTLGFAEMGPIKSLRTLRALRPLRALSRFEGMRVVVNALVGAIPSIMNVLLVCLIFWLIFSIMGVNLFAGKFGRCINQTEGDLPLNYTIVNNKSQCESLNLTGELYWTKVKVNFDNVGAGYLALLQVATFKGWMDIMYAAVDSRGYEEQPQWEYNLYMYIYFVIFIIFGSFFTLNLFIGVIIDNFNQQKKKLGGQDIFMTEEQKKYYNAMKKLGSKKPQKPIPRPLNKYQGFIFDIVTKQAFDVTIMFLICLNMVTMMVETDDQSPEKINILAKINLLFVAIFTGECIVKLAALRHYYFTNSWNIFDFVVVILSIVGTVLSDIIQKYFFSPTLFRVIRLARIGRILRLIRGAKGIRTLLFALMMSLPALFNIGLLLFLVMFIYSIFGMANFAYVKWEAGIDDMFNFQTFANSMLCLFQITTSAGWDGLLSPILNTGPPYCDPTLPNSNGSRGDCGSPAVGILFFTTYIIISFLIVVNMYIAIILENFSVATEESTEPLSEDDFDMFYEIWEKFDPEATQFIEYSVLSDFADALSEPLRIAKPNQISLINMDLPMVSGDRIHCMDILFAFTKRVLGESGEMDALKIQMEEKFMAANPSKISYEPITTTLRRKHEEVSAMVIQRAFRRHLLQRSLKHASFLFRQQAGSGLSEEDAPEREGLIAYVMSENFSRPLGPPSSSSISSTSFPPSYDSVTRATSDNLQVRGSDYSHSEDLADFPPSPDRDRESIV
T1 sequence (Q9Y5Y9 whole entry): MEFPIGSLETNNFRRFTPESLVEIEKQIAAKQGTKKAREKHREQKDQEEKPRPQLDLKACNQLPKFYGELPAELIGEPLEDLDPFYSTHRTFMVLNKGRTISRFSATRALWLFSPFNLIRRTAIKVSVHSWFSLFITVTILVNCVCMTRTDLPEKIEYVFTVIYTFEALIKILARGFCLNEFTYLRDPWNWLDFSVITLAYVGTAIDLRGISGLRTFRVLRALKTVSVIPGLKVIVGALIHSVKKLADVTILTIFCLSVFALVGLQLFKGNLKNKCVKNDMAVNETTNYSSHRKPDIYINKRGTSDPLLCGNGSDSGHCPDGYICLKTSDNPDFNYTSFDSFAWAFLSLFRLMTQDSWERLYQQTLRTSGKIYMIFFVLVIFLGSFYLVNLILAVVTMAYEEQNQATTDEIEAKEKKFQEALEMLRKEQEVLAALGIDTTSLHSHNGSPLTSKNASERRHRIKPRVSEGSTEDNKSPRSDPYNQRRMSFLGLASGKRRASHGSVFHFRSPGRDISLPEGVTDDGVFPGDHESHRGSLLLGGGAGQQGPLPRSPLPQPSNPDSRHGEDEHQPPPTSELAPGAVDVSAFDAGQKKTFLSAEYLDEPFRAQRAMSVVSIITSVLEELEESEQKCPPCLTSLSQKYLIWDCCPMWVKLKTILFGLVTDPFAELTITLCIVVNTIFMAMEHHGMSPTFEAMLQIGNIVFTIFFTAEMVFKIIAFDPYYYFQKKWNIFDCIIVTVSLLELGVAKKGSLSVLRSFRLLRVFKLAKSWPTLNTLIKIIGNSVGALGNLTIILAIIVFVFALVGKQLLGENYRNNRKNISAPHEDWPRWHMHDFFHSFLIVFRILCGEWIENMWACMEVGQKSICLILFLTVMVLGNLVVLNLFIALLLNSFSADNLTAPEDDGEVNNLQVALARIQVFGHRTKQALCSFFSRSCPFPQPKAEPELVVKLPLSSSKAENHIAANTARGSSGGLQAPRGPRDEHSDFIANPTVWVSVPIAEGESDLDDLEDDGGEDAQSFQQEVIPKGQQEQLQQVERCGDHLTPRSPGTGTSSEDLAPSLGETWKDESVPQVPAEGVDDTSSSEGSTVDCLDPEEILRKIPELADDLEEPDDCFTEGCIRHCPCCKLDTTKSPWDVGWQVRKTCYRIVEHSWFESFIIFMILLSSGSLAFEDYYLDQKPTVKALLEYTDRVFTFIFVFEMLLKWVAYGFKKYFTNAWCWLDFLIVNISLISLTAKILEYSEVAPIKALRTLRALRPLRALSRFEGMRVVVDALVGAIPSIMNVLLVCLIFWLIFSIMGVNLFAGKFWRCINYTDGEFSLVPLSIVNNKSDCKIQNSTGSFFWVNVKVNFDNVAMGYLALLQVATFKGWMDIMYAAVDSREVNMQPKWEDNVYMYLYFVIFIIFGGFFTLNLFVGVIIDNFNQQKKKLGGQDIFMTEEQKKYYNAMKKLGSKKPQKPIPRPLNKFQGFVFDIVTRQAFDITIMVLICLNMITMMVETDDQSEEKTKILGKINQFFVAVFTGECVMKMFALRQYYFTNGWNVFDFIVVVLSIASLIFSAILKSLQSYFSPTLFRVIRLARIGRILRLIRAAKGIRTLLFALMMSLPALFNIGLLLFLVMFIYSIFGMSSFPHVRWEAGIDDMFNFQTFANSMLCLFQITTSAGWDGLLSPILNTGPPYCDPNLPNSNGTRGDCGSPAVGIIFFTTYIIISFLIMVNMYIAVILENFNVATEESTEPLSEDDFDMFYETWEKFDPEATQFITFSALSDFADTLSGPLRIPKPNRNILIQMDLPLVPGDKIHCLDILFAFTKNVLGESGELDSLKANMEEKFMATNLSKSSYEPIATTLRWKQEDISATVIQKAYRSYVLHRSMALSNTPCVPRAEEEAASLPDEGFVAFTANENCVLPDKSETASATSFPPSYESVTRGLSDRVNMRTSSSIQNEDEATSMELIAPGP
T1 sequence (Q9NY72 25-215 partner limits assumed): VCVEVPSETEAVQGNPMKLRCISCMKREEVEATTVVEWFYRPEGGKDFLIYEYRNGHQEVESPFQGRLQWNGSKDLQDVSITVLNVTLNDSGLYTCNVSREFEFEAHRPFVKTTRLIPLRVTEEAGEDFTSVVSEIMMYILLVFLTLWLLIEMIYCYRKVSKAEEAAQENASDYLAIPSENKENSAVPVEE

Turning to `COCCOc1c([C@H]2[C@H](C(=O)Nc3ccc(F)c(C(=N)NO)c3)O[C@@](C)(C(F)(F)F)[C@H]2C)ccc(F)c1F` [Example 10], the inhibition at 30 µM on Nav1.5 (human, cho/hek293 cells) worked out at 51.7%.
With `C[C@H]1[C@@H](c2ccc(F)c(F)c2OC2COC2)[C@H](C(=O)Nc2ccc(F)c(C(=N)NO)c2)O[C@@]1(C)C(F)(F)F` [Example 11], the inhibition at 30 µM on Nav1.5 (cho/hek293 cells) was found to be 9.11%. Besides, the IC50 on hNav1.8 turned out to be 0.229 nM.
For `COc1c([C@H]2[C@H](C(=O)Nc3ccnc(C(N)=O)c3)O[C@@](C)(C(F)(F)F)[C@H]2C)ccc(F)c1F` [Reference compound, reference compound], on Nav1.5 (human), the inhibition at 30 µM worked out at 72.2%. Further, at hNav1.8, the IC50 came out at 0.297 nM.
